Data taken from publication PMC5562805, “Overcoming the plasticity of plant specialized metabolism for selective diterpene production in yeast” (Scientific Reports, 2017).

Molecular target: T1, CYP76AK6 (Salvia pomifera, UniProt A0A0S1TPC7)
T1 construct: expressed in S. cerevisiae (pESC-Trp) with CYP76AH24 variant and Populus trichocarpa CPR2
T1 sequence (A0A0S1TPC7 1-500): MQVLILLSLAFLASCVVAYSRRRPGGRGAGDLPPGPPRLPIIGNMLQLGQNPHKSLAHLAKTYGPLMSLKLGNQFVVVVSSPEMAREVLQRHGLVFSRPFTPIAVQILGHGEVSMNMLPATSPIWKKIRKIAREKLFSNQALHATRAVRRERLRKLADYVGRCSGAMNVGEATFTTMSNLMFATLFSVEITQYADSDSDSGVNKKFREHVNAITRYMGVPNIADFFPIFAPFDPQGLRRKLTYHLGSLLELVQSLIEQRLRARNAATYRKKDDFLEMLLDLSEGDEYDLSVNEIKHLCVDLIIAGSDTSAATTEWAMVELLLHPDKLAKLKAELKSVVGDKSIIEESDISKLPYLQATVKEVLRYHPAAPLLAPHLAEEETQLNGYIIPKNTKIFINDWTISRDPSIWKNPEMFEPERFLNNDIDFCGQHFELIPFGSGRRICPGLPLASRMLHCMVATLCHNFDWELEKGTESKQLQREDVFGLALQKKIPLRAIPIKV
Test: product titre in engineered yeast cells, GC
Assay type: cell-based
Conditions: C-20 oxidation to pisiferic acid; co-expressed CYP76AH24(F112L), CPR2, Cytb5

SMILES: CC(C)c1cc2c(cc1O)[C@@]1(C)CCCC(C)(C)[C@@H]1CC2 [ferruginol]
- product titre in engineered yeast cells, GC: CYP76AH24(F112L) variant enabled the complete shift from carnosic acid to pisiferic acid production in yeast
